Where two headings read alike, the source gives them in different places.
Assays:
hrCYP2C19 = hrCYP2C19 (Homo sapiens, UniProt P33261); settings: recombinant enzyme, 5 μM, pH 7.4
Description: (§1) The reaction was initiated by the addition of NADPH, followed by incubation at 37° C.
(§2) % Remaining of TA=100×At/A0
(§3) Where, At is the peak area ratio of TA to internal standard (IS) at time t, A0 is the average peak area ratio of TA to IS at time zero.

hrCYP2D6 = hrCYP2D6 (Homo sapiens, UniProt P10635); settings: recombinant enzyme, 5 μM, pH 7.4
Sequence of hrCYP2D6 (P10635 whole entry): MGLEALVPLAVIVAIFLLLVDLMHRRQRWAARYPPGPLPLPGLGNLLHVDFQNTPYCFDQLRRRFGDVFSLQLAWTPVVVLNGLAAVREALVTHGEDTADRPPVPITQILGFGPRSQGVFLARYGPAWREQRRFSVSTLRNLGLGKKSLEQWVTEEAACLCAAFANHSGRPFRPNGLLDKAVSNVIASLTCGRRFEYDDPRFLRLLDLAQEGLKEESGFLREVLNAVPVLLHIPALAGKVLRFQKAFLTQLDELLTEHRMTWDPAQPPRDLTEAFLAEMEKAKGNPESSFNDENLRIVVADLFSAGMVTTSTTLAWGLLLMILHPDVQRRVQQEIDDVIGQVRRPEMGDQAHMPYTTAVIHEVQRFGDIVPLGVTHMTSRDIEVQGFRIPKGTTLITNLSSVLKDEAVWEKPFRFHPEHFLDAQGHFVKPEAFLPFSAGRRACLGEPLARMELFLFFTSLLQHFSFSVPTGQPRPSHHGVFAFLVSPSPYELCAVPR
Description: as §1, §2, §3

hrCYP3A4 = hrCYP3A4 (Homo sapiens, UniProt P08684); settings: recombinant enzyme, 5 μM, pH 7.4
Sequence of hrCYP3A4 (P08684 whole entry): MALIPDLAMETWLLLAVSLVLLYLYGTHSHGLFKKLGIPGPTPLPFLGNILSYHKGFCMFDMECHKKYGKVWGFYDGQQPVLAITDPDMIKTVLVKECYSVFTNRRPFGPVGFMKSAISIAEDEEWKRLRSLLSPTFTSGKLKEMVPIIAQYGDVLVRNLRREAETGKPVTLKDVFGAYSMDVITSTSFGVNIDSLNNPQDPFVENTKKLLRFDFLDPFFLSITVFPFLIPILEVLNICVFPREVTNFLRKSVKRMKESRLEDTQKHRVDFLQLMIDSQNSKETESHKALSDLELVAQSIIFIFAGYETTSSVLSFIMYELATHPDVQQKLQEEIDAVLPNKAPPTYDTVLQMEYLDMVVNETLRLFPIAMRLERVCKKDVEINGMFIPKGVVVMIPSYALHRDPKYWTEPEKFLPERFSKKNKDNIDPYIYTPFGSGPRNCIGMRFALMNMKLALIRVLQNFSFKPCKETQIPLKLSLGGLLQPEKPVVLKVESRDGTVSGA
Description: as §1, §2, §3

hrCYP2C9 = hrCYP2C9 (Homo sapiens, UniProt P11712); settings: recombinant enzyme, 5 μM, pH 7.4
Sequence of hrCYP2C9 (P11712 whole entry): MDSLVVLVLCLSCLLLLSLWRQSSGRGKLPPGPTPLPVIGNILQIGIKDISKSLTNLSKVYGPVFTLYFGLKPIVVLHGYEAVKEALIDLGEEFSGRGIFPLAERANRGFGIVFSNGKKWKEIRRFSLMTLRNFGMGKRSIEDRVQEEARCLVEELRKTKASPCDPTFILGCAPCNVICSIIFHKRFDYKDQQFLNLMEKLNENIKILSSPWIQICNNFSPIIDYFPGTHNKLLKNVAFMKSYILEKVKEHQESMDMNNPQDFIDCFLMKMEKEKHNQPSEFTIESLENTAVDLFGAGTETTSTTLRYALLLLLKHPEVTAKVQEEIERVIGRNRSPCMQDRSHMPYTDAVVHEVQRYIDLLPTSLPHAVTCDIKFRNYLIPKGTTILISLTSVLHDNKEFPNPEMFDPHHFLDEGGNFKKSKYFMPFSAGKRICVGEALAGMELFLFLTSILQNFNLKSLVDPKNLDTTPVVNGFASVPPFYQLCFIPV
Description: as §1, §2, §3

hrCYP2C8 = target: T1, hrCYP2C8 (Homo sapiens, UniProt P10632); settings: recombinant enzyme, 5 μM, pH 7.4
T1 sequence (P10632 1-490): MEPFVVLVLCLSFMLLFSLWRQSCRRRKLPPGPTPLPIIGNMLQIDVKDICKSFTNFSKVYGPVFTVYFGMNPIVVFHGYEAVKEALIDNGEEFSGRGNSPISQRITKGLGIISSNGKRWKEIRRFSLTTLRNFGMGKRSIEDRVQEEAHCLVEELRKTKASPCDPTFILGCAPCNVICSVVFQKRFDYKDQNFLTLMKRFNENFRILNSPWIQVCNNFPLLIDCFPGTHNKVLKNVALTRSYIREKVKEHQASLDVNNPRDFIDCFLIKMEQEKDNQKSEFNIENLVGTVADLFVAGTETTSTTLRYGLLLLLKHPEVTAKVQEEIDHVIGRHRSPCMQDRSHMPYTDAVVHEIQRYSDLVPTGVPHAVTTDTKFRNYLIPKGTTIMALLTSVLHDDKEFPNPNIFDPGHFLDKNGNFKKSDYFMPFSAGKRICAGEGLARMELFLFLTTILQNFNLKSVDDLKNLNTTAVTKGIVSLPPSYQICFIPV
Description: as §1, §2, §3

[1] = male, CD (Sprague-Dawley) IGS, rat, in vivo
P-gp = P-gp (Homo sapiens, UniProt P08183); test: P-gp IC50 assessment, bidirectional digoxin transport in MDR1-MDCK cells
Sequence of P-gp (P08183 whole entry): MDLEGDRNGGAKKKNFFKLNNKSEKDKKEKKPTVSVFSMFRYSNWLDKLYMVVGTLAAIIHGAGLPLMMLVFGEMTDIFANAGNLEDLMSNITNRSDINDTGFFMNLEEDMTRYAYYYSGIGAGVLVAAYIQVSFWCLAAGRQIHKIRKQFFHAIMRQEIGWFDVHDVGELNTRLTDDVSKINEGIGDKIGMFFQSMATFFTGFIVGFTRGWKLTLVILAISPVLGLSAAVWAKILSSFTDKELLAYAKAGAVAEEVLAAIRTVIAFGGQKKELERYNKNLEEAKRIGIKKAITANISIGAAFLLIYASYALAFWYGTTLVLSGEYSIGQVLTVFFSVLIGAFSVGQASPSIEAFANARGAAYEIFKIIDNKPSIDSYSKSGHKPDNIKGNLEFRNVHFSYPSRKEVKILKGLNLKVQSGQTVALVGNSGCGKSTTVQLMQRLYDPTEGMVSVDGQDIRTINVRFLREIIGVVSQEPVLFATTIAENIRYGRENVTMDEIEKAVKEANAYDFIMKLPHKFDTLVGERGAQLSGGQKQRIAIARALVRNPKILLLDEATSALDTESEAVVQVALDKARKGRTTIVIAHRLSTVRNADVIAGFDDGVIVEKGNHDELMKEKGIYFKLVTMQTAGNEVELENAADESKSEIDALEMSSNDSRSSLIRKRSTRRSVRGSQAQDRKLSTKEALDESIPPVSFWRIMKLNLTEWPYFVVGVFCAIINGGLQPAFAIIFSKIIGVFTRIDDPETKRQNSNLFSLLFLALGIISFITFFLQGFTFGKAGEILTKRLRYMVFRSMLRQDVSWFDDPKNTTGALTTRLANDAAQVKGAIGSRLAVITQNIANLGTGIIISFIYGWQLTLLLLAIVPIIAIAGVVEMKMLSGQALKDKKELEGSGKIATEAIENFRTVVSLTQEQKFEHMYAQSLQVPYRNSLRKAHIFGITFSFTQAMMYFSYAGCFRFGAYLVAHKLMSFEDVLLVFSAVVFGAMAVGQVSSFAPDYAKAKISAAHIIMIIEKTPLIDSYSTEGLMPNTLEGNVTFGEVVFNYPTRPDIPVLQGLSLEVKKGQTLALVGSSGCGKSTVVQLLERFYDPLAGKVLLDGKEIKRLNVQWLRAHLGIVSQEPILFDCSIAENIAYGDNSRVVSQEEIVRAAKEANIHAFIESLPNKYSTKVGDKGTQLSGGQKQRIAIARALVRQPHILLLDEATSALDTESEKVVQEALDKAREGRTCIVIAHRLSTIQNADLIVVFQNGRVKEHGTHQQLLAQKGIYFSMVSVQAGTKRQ

OATP1B1 = target: T2, OATP1B1 (Homo sapiens, UniProt Q9Y6L6)
T2 sequence (Q9Y6L6 1-691): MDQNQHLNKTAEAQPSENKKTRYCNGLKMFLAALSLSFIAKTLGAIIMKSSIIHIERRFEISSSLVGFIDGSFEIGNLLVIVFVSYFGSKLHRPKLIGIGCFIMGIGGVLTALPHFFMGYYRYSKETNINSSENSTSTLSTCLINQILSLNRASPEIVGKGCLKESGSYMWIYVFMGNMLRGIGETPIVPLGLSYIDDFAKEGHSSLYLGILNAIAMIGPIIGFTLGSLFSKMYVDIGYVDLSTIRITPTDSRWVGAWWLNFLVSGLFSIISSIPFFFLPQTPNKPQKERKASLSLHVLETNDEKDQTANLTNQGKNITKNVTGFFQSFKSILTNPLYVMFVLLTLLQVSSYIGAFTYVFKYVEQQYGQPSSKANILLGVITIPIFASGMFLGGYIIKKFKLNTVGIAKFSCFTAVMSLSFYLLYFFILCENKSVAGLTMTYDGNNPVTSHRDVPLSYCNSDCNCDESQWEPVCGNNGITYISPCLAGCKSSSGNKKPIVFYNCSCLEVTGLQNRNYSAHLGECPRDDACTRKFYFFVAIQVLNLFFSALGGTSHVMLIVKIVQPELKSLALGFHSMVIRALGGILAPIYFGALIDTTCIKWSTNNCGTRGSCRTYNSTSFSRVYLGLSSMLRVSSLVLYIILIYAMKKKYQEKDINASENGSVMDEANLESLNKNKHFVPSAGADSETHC

OAT1 = target: T3, OAT1 (Homo sapiens, UniProt Q4U2R8); test: OAT1 inhibitor (IC50) assessment, PAH uptake in transfected HEK cells; type: in vitro ADME
T3 construct: expressed in transfected cells; host or cells: HEK293
T3 sequence (Q4U2R8 1-563): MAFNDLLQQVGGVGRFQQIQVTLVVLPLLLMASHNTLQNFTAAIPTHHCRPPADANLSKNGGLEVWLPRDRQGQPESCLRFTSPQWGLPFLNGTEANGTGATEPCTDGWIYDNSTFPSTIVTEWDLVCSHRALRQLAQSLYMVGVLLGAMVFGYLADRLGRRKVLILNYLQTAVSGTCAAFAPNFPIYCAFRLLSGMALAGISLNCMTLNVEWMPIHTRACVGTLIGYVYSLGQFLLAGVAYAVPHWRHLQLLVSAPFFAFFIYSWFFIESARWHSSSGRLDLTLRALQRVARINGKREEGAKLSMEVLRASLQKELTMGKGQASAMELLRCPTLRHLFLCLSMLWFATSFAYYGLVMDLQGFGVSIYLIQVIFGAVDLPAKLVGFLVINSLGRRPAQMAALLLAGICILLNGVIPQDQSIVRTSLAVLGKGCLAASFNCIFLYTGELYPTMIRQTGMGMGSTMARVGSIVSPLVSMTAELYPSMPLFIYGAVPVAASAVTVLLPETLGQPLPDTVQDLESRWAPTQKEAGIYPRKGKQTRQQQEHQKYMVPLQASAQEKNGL

[2] = TUDCA and PB present simultaneously, PAH uptake, HEK cells, read-out: estimated IC50 toward OAT1
[3] = previous study (Example 6), converted, read-out: IC50 for in vitro inhibition of human OAT1

Sequence of hrCYP2C19 (P33261 whole entry): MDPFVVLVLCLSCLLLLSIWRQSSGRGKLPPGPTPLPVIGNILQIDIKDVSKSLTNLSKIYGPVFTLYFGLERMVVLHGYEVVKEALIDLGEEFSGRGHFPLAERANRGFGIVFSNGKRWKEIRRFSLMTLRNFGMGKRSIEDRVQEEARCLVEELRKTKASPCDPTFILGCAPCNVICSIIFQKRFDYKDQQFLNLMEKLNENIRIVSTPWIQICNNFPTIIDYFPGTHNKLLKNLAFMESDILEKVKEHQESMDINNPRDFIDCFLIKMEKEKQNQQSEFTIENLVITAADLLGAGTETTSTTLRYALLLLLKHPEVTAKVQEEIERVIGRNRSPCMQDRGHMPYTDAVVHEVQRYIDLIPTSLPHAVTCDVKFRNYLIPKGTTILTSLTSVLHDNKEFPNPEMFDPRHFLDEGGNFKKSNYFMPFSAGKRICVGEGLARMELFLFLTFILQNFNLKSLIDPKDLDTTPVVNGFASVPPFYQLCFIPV

Row | SMILES | % Remaining of TA (hrCYP2C19; 0 h) | % Remaining of TA (hrCYP2C19; 5 min) | % Remaining of TA (hrCYP2C19; 10 min) | % Remaining of TA (hrCYP2C19; 20 min) | % Remaining of TA (hrCYP2C19; 0.5 h) | % remained after 60 minutes of incubation (hrCYP2C19; 1 h) | % Remaining of TA (hrCYP2D6; 0 h) | % Remaining of TA (hrCYP2D6; 5 min) | % Remaining of TA (hrCYP2D6; 10 min) | % Remaining of TA (hrCYP2D6; 20 min) | % Remaining of TA (hrCYP2D6; 0.5 h) | % Remaining of TA (hrCYP2D6; 1 h) | % remained after 60 minutes of incubation (hrCYP2D6; 1 h) | % Remaining of TA (hrCYP3A4; 0 h) | % Remaining of TA (hrCYP3A4; 5 min) | % Remaining of TA (hrCYP3A4; 10 min) | % Remaining of TA (hrCYP3A4; 20 min) | % Remaining of TA (hrCYP3A4; 0.5 h) | % remained after 60 minutes of incubation (hrCYP3A4; 1 h) | % Remaining of TA (hrCYP2C9; 0 h) | other results
1 | O=C(O)CCCc1ccccc1 [PB, sodium phenylbutyrate] | 100% | 97.4% | 101% | 99.7% | 97.5% | greater than 90% | 100% | 99.9% | 96.7% | 97.6% | 101% | 100% | greater than 90% | 100% | 100% | 97.9% | 100% | 98.1% | greater than 90% | 100% | % Remaining of TA (hrCYP2C19; 1 h): 99.8%; % Remaining of TA (hrCYP2C9; 20 min): 99.5%; % Remaining of TA (hrCYP2C9; 1 h): 98.0%; % remained after 60 minutes of incubation (hrCYP2C9; 1 h): greater than 90%; % remained after 60 minutes of incubation (hrCYP2C8; 1 h): greater than 90%; plasma concentrations remained quantifiable through [1]: 4 h; IC50 (P-gp): 7160 to 21500 µM; IC50 (OATP1B1): 1210 to 3630 µM; IC50 (OAT1; [2]): 6.76 to 20.3 µM; IC50 (OAT1; [3]): 6.72 to 20.2 µM
2 | C[C@H](CCC(=O)NCCS(=O)(=O)O)[C@H]1CC[C@H]2[C@@H]3[C@@H](O)C[C@@H]4C[C@H](O)CC[C@]4(C)[C@H]3CC[C@]12C [TUDCA, tauroursodeoxycholic acid] | 100% | 96.1% | 98.7% | 94.8% | 95.1% | greater than 90% | 100% | 98.4% | 97.8% | 97.0% | 99.2% | 98.6% | greater than 90% | 100% | 97.1% | 92.1% | 91.4% | 90.9% | greater than 90% | 100% | % Remaining of TA (hrCYP3A4; 1 h): 91.1%; % Remaining of TA (hrCYP2C9; 5 min): 96.0%; % Remaining of TA (hrCYP2C9; 10 min): 98.8%; % Remaining of TA (hrCYP2C9; 20 min): 98.5%; % Remaining of TA (hrCYP2C9; 0.5 h): 97.8%; % Remaining of TA (hrCYP2C9; 1 h): 90.3%; % remained after 60 minutes of incubation (hrCYP2C9; 1 h): greater than 90%; % Remaining of TA (hrCYP2C8; 0 h): 100%; % Remaining of TA (hrCYP2C8; 10 min): 99.3%; % Remaining of TA (hrCYP2C8; 20 min): 101%; % Remaining of TA (hrCYP2C8; 0.5 h): 101%; % Remaining of TA (hrCYP2C8; 1 h): 99.8%; % remained after 60 minutes of incubation (hrCYP2C8; 1 h): greater than 90%; mean endogenous plasma levels over the 24 hour time course [1]: 130 to 222 ng/mL; IC50 (P-gp): 889 to 2670 µM; IC50 (OATP1B1): 12.9 to 38.7 µM; IC50 (OAT1; [2]): 0.0741 to 0.222 µM; IC50 (OAT1; [3]): 0.07 to 0.222 µM; IC50 (OAT1; previous study (Example 6), read-out: IC50 for in vitro inhibition of human OAT1): 0.074 to 0.222 µM

Reference: US20230277630A1, “METHODS AND COMPOSITIONS FOR TREATING AMYOTROPHIC LATERAL SCLEROSIS” (Amylyx Pharmaceuticals, Inc., priority 2022, published 2023)
